Results reported in patent publication US20250201406A1, “METHOD AND BIOMARKER FOR PREDICTING SEVERITY OF COVID-19 DISEASE AND METHOD FOR THERAPEUTIC INTERVENTION IN COVID-19 DISEASE” (priority 2022, published 2025).

Key:
[1] = test system: SARS-CoV-2 specific CD8^+Tc; conditions: through normalizing cellular metabolism; cited from earlier work
[2] = test system: COVID-19; conditions: randomized clinical trials; cited from earlier work
[3] = test system: COVID-19; conditions: COVID-19 patients, stage-2 clinical trial; cited from earlier work
[4] = test system: CD8^+Tc; test: SARS-CoV-2 specific peptide activation of COVID(+) PBMCs in presence or absence of Mdivi-1, flow cytometry of CD8+Tc; format: cell-based, human; conditions: 20 μM Mdivi-1 vs vehicle, 96 hr, CD8a SARS-CoV-2 megapool peptide, PBMCs from COVID-19(+) patients
Method: (§1) PBMCs (0.5×10^6 cells) were first stained with live/dead in PBS for 15 min, washed with Flow Cytometry Staining Buffer (FACS Buffer), and stained with surface markers in ice-cold FACS buffer at 4° C. for 30 min. PBMCs were then washed twice with FACS buffer and stained with secondary antibodies for 15 minutes. Samples were fixed and permeabilized using Fixation/Permeabilization buffer (20 min) at room temperature and washed with ice-cold FACS buffer. PBMCs were then stained with intracellular antibodies at 37° C. for 45 min in permeabilization buffer. Samples were washed once with permeabilization buffer before being resuspended in FACS buffer for flow cytometric analysis using Cytoflex system. Data was then analyzed by Flowjo™v10.
(§2) PBMCs (5×10^5) were stimulated with […] of CD8a SARS-CoV-2 megapool peptide^92 in the presence of absence of 20 μM Mdivi-1 at 37° C., 5% C02 for 96 hr.
(§3) FIGS. 15A-F. Mitophagy inhibition restores CD8^+Tc and SARS-CoV-2 specific CD8^+Tc function. PBMCs from 5 COVID-19(+) patients were activated with SARS-CoV-2 megapool CD8a peptide (see Methods) in the presence or absence of MDIVI-1 (20 μM). One sample was excluded from analysis due to critically low CD8^+Tc count. […] Two-tailed student's T-test was used. *p<0.05, **p<0.01, and ***p<0.001.

[5] = test system: SARS-CoV-2; conditions: virally infected cells; cited from earlier work
[6] = test system: CD8^+TM; test: SARS-CoV-2 specific peptide activation of COVID(+) PBMCs in presence or absence of Mdivi-1, flow cytometry of CD8+TM; format: cell-based, human; conditions: 20 μM Mdivi-1 vs vehicle, 96 hr, CD8a SARS-CoV-2 megapool peptide, PBMCs from COVID-19(+) patients
Method: as §1, §2, §3

cyclophilin A: found to restore SARS-CoV-2 specific CD8+Tc function through normalizing cellular metabolism
SARS-CoV-2 specific CD8^+Tc function [1]: restore

CCN(CCO)CCCC(C)Nc1ccnc2cc(Cl)ccc12 (stereo not drawn) [Hydroxychloroquine]
efficacy in COVID-19 [2]: ineffective

O=CC[C@@H](O)[C@H](O)[C@H](O)CO [2-DG, 2-deoxy-glucose]
patient outcomes [3]: successful in improving patient outcomes

COc1cc(-n2c(=S)[nH]c3ccccc3c2=O)c(Cl)cc1Cl [Mdivi-1]
generation of SARS-CoV-2-specific CD137^+ cells amongst CD8+Tc ([4]; FIG. 15B): improved
proliferation (Ki-67^+ cells) of CD8+Tc ([4]; FIG. 15C): induced
IFNy-secreting capacity of CD8^+Tc ([4]; FIG. 15D): induced
SARS-CoV-2 replication [5]: effectively reduce
Glut-1 expression in CD8^+TM [6]: reduced
CD8^+TM proliferation (Ki-67) ([6]; FIG. 15E): augmented
